PubChem BioAssay AID248 (DTP/NCI, 2004)
Several values for one entry are separate records, joined by “and”; a condition that tells them apart may be missing. Equal entries are not always repeated. Toxic doses and inconclusive results are not listed. No stated cut-off is given here; in the data, active means T/C of 150% or more; inactive means T/C below 125%.

Tested on: L1210 leukemia ip in BDF1 mice, survival T/C
Test: NCI In Vivo Anticancer Drug Screen. Data for tumor model L1210 Leukemia (intraperitoneal) in B6D2F1 (BDF1) mice
Conditions: endpoint: mean survival time, higher = longer survival
Summary of the method: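 In this screen, tumor-bearing mice given compound are compared to those given vehicle, and their survival values are reported as a treated-to-control quotient.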

[1] = dose: 100.0 mg/kg/injection, schedule: Q01DX009 (ip), vehicle: saline
[2] = dose: 100.0 mg/kg/injection, schedule: Q04DX003 (ip), vehicle: saline with Tween-80
[3] = dose: 200.0 mg/kg/injection, schedule: Q04DX003 (ip), vehicle: saline with Tween-80
[4] = dose: 400.0 mg/kg/injection, schedule: Q04DX003 (ip), vehicle: saline with Tween-80
[5] = dose: 25.0 mg/kg/injection, schedule: Q01DX009 (ip), vehicle: saline
[6] = dose: 50.0 mg/kg/injection, schedule: Q01DX009 (ip), vehicle: saline
[7] = dose: 100.0 mg/kg/injection, schedule: Q01DX001 (ip), vehicle: saline
[8] = dose: 200.0 mg/kg/injection, schedule: Q01DX001 (ip), vehicle: saline
[9] = dose: 100.0 mg/kg/injection, schedule: Q01DX009 (ip), vehicle: Klucel (hydroxypropylcellulose) (HPC)
[10] = dose: 200.0 mg/kg/injection, schedule: Q01DX009 (ip), vehicle: Klucel (hydroxypropylcellulose) (HPC)
[11] = dose: 200.0 mg/kg/injection, schedule: Q01DX001 (ip), vehicle: carboxymethylcellulose (CMC)
[12] = dose: 400.0 mg/kg/injection, schedule: Q01DX001 (ip), vehicle: carboxymethylcellulose (CMC)

Measured: T/C

CC1CCCC(C)(CO)O1 (stereo not given)
inactive: [1] 93 % of control | dose: 100.0 mg/kg/injection, schedule: Q04DX003 (ip), vehicle: saline 97 % of control | dose: 200.0 mg/kg/injection, schedule: Q01DX009 (ip), vehicle: saline 101 % of control | dose: 200.0 mg/kg/injection, schedule: Q04DX003 (ip), vehicle: saline 97 % of control | dose: 400.0 mg/kg/injection, schedule: Q01DX009 (ip), vehicle: saline 109 % of control | dose: 400.0 mg/kg/injection, schedule: Q04DX003 (ip), vehicle: saline 97 % of control

NC(=O)c1cc([N+](=O)[O-])c(Cl)c([N+](=O)[O-])c1
inactive: dose: 20.0 mg/kg/injection, schedule: Q04DX003 (ip), vehicle: Klucel (hydroxypropylcellulose) (HPC) 97 % of control | dose: 40.0 mg/kg/injection, schedule: Q04DX003 (ip), vehicle: Klucel (hydroxypropylcellulose) (HPC) 97 % of control | dose: 80.0 mg/kg/injection, schedule: Q04DX003 (ip), vehicle: Klucel (hydroxypropylcellulose) (HPC) 103 % of control

CC(=O)Nc1ccc(C(C)(C)c2ccc([N+](=O)[O-])cc2)cc1[N+](=O)[O-]
inactive: dose: 50.0 mg/kg/injection, schedule: Q01DX001 (ip), vehicle: other 98 % of control | dose: 100.0 mg/kg/injection, schedule: Q01DX001 (ip), vehicle: other 104 % of control | dose: 400.0 mg/kg/injection, schedule: Q01DX001 (ip), vehicle: other 93 % of control

OCCCCCCCCCCCCO
inactive: [2] 105 % of control | [3] 94 % of control | [4] 103 % of control

CNc1cc([N+](=O)[O-])ccc1OCc1ccccc1
inactive: dose: 75.0 mg/kg/injection, schedule: Q01DX009 (ip), vehicle: saline with Tween-80 87 % of control | [2] 89 % of control | dose: 150.0 mg/kg/injection, schedule: Q01DX009 (ip), vehicle: saline with Tween-80 87 % of control | [3] 92 % of control | dose: 300.0 mg/kg/injection, schedule: Q01DX009 (ip), vehicle: saline with Tween-80 91 % of control | [4] 101 % of control

C=CCN(CC=C)CC=C
inactive: [5] 100 % of control | [6] 97 % of control | [1] 100 % of control

CC1(C)OC2/C(=N/O)C3COC(O3)C2O1 (stereo not given)
inactive: [7] 101 % of control | [8] 95 % of control | dose: 400.0 mg/kg/injection, schedule: Q01DX001 (ip), vehicle: saline 106 % of control

c1ccc2c(c1)CCc1cc3c(nc1-2)-c1ccccc1CC3
inactive: [9] 97 % of control | dose: 100.0 mg/kg/injection, schedule: Q04DX003 (ip), vehicle: Klucel (hydroxypropylcellulose) (HPC) 100 % of control | [10] 98 % of control | dose: 200.0 mg/kg/injection, schedule: Q04DX003 (ip), vehicle: Klucel (hydroxypropylcellulose) (HPC) 100 % of control | dose: 400.0 mg/kg/injection, schedule: Q01DX009 (ip), vehicle: Klucel (hydroxypropylcellulose) (HPC) 95 % of control | dose: 400.0 mg/kg/injection, schedule: Q04DX003 (ip), vehicle: Klucel (hydroxypropylcellulose) (HPC) 94 % of control

O=[N+]([O-])c1ccc(OCn2ncc3ccc([N+](=O)[O-])cc32)cc1
inactive: dose: 100.0 mg/kg/injection, schedule: Q01DX001 (ip), vehicle: carboxymethylcellulose (CMC) 93 % of control | [11] 98 % of control | [12] 88 % of control

O=C(Nc1ccc(C2=NCCN2)cc1)c1ccc(C(=O)Nc2ccc(C3=NCCN3)cc2)c2ccccc12
active: dose: 15.0 mg/kg/injection, schedule: Q01DX Z (ip), vehicle: methylcellulose (MC) 169 % of control | dose: 30.0 mg/kg/injection, schedule: Q01DX Z (ip), vehicle: methylcellulose (MC) 166 % of control and 170 % of control
inactive: dose: 3.75 mg/kg/injection, schedule: Q01DX Z (ip), vehicle: methylcellulose (MC) 102 % of control | dose: 7.5 mg/kg/injection, schedule: Q01DX Z (ip), vehicle: methylcellulose (MC) 118 % of control | dose: 30.0 mg/kg/injection, schedule: Q01DX Z (oral), vehicle: carboxymethylcellulose (CMC) 102 % of control | dose: 120.0 mg/kg/injection, schedule: Q01DX Z (oral), vehicle: carboxymethylcellulose (CMC) 94 % of control

COc1cc(N=Nc2ccc([N+](=O)[O-])cc2)c(OC)cc1N
inactive: dose: 5.0 mg/kg/injection, schedule: Q01DX001 (ip), vehicle: other 98 % of control | dose: 10.0 mg/kg/injection, schedule: Q01DX001 (ip), vehicle: other 101 % of control | dose: 20.0 mg/kg/injection, schedule: Q01DX001 (ip), vehicle: other 98 % of control | dose: 40.0 mg/kg/injection, schedule: Q01DX001 (ip), vehicle: other 101 % of control

CSc1ccc(NC(=O)Nc2ccc(Cl)cc2[N+](=O)[O-])cc1
inactive: [9] 97 % of control | [10] 91 % of control

C[C@]12CCC(=O)C=C1CC[C@H]1[C@@H]3CCC(=O)[C@@]3(C)CC(=O)[C@@]12S
inactive: dose: 100.0 mg/kg/injection, schedule: Q01DX001 (ip), vehicle: steriod suspending solution 87 % of control | dose: 100.0 mg/kg/injection, schedule: Q04DX003 (ip), vehicle: steriod suspending solution 93 % of control | dose: 200.0 mg/kg/injection, schedule: Q01DX001 (ip), vehicle: steriod suspending solution 93 % of control | dose: 200.0 mg/kg/injection, schedule: Q04DX003 (ip), vehicle: steriod suspending solution 108 % of control | dose: 400.0 mg/kg/injection, schedule: Q01DX001 (ip), vehicle: steriod suspending solution 97 % of control | dose: 400.0 mg/kg/injection, schedule: Q04DX003 (ip), vehicle: steriod suspending solution 95 % of control

C=CC#N
inactive: dose: 6.0 mg/kg/injection, schedule: Q01DX009 (ip), vehicle: saline 95 % of control | dose: 12.0 mg/kg/injection, schedule: Q01DX009 (ip), vehicle: saline 93 % of control | dose: 12.5 mg/kg/injection, schedule: Q01DX009 (ip), vehicle: saline 98 % of control | [5] 93 % of control | dose: 50.0 mg/kg/injection, schedule: Q01DX009 (ip), vehicle: carboxymethylcellulose (CMC) 93 % of control | [6] 94 % of control and 105 % of control | dose: 50.0 mg/kg/injection, schedule: Q04DX003 (ip), vehicle: saline 91 % of control | dose: 100.0 mg/kg/injection, schedule: Q01DX009 (ip), vehicle: carboxymethylcellulose (CMC) 92 % of control | [11] 90 % of control | dose: 200.0 mg/kg/injection, schedule: Q01DX009 (ip), vehicle: carboxymethylcellulose (CMC) 93 % of control | [12] 95 % of control | dose: 400.0 mg/kg/injection, schedule: Q01DX009 (ip), vehicle: carboxymethylcellulose (CMC) 97 % of control | dose: 600.0 mg/kg/injection, schedule: Q01DX001 (ip), vehicle: carboxymethylcellulose (CMC) 98 % of control | dose: 600.0 mg/kg/injection, schedule: Q01DX009 (ip), vehicle: carboxymethylcellulose (CMC) 89 % of control | dose: 800.0 mg/kg/injection, schedule: Q01DX001 (ip), vehicle: carboxymethylcellulose (CMC) 93 % of control | dose: 800.0 mg/kg/injection, schedule: Q01DX009 (ip), vehicle: carboxymethylcellulose (CMC) 95 % of control

C=CCOC(=S)S
inactive: [7] 95 % of control | [8] 94 % of control

CCCCC#CC(=O)OC(C)CC (stereo not given)
inactive: dose: 100.0 mg/kg/injection, schedule: Q04DX002 (ip), vehicle: saline 104 % of control | dose: 200.0 mg/kg/injection, schedule: Q04DX002 (ip), vehicle: saline 92 % of control | dose: 400.0 mg/kg/injection, schedule: Q04DX002 (ip), vehicle: saline 101 % of control

CCC1C(=O)OCc2c1cc1n(c2=O)Cc2cc3ccccc3nc2-1 (stereo not given)
inactive: dose: 2.5 mg/kg/injection, schedule: Q01DX001 (ip), vehicle: saline 102 % of control | dose: 5.0 mg/kg/injection, schedule: Q01DX001 (ip), vehicle: saline 107 % of control | dose: 10.0 mg/kg/injection, schedule: Q01DX001 (ip), vehicle: saline 102 % of control | dose: 15.0 mg/kg/injection, schedule: Q01DX001 (ip), vehicle: saline 118 % of control

CC1CCC(OC(C[N+](=O)[O-])C(Cl)(Cl)Cl)CC1 (stereo not given)
inactive: dose: 100.0 mg/kg/injection, schedule: Q01DX009 (ip), vehicle: saline with Tween-80 93 % of control | [2] 106 % of control | dose: 200.0 mg/kg/injection, schedule: Q01DX009 (ip), vehicle: saline with Tween-80 91 % of control | [3] 101 % of control | dose: 400.0 mg/kg/injection, schedule: Q01DX009 (ip), vehicle: saline with Tween-80 90 % of control | [4] 104 % of control
